# Legend:
# Solubility in toluene = format: physicochemical
# Source text: The solubility of the iodonium salts of the invention was compared with the solubility of the hydroxyl-bearing iodonium salts.
# [1] = Hydrolytic stability: time to formation of visible precipitates or crystals; format: physicochemical; conditions: time to formation of visible precipitates or crystals of hydrolytic cleavage product formula (XI)
# Source text: The improved hydrolytic stability of the iodonium salts of the invention containing urethane groups may best be shown in comparison with the iodonium salt with the formula (XVI), containing Si—O—C bonds (see German Patent Application 19901531.7). [drawing 19]
# Indicated is the time to the formation of visible precipitates or crystals of the hydrolytic cleavage product with the formula (XI): […]
# [2] = Miscibility with organopolysiloxanes containing epoxy groups; format: physicochemical
# [3] = Tests relating to cationic photopolymerization (UV curing of coating)
# Source text: In order to examine the activity of the compounds shown in Examples 1-4 in cationic photopolymerization, 98 parts of a cycloaliphatic epoxysilane having an epoxy value of 3.5% and a viscosity of 125 mPas were mixed with 2 parts of each photoinitiator.
# The mixtures were then applied to a standard OPP film (30 μm) using a pilot-scale coating machine equipped with a five-roll applicator unit. The application weight was 0.5-1 g/m^2. The coatings were subsequently cured with a microwave-excited UV lamp (Fusion, 120 W/cm) at a web speed of 20 m/min.
# Directly following passage under the UV lamp, it was determined whether the coatings have cured to a film which is no longer tacky.
smiles,measurement,setting,value
CCCCCCCCCCCCC(COc1ccc([I+]c2ccccc2)cc1)OC(=O)Nc1cccc(C(F)(F)F)c1 (stereo not drawn) [Formula (VII)],solubility in toluol,Solubility in toluene,unrestricted solubility
CCCCCCCCCCCCC(COc1ccc([I+]c2ccccc2)cc1)O[Si](C)(C)C (stereo not drawn) [Formula (XVI)],Stability in 1-butanol (50% w/w),[1]; 50% w/w in 1-butanol,2 days
same,Stability in toluene (50% w/w),[1]; 50% w/w in toluene,21 days
CCCCCCCCCCCCC(O)COc1ccc([I+]c2ccccc2)cc1 (stereo not drawn) [Formula (VIII)],miscibility with organopolysiloxanes containing epoxy groups,[2],no miscibility
same,solubility in toluol,Solubility in toluene,insoluble
same,Appearance of the mixture,"[3]; 2 parts photoinitiator in 98 parts cycloaliphatic epoxysilane (epoxy value 3.5%, 125 mPas)","cloudy,"
same,Curing after the UV lamp,"[3]; 2 parts photoinitiator, 0.5-1 g/m^2 on OPP film, UV lamp 120 W/cm, web speed 20 m/min, judged directly after lamp",unsatisfactory;
CCCCCCCCCCCCC(O)COc1ccc([I+]c2ccccc2)cc1 (stereo not drawn) [Formula (XI)],melting point,,91 °C
same,Solubility in toluene,Solubility in toluene,insoluble
